Read-outs that look alike come from different tables or passages of the source.
Legend:
ARPE-19 cells [1] = assay: Lipid peroxidation status with C11-Bodipy581/591 probe (FACS) under oxidative conditions; format: cell-based; settings: ARPE-19, 50 µM for 24 h
Procedure: ARPE-19 cells were plated into 2 cm^2 wells (2 × 10^5 cells/well) and cultured for 24 h to reach confluence before PUFA or lipophenol treatment. The cell cultures were treated with 1% FBSM containing tested compounds (deuterated DHAs or deuterated lipophenols) at 50 μM for 24 h and then rinsed with media before the incubation of 5 µM C11-Bodipy^581/591 for 30 min. Then, the cells were rinsed and treated with the different stressors, corresponding to different protocols. For chemical stress the cells were incubated with 400 µM of H2O2 during 24 h followed by FACS analysis. For photobleaching stress, the cells were exposed to a white LED lamp with an intensity of 5000 lux at room temperature during 1 h followed by the FACS analysis.
FACS was performed with the BD Accuri C6 Flow Cytometer and BD Accuri C6 Software for data acquisition (BD Biosciences). This flow cytometer is equipped with an excitation laser at 488 nm, and a fluorescence detector FL1 533/30 nm. Data were collected to 10,000 events for each sample using a flow rate of 35 µL/min. Parameters obtained for data analysis included: cell size from the forward scatter (FSC), granularity from the side scatter (SSC) and the green fluorescence of the stained cells with C11-Bodipy^581/591.
First the SSC-A versus FSC-A dot-plot was used to gate the cellular population and remove the cellular debris. Then the SSC-A versus SSC-H dot-plot was used to remove cell doublets in the previous gate to give a final gate. The cellular population in the last gate designed was plotted on count versus log green fluorescence to give the fluorescence mean intensity of FL1. The mean FL1 values were normalized to the cells only stained with C11-Bodipy^581/591.

ARPE-19 cells [2] = assay: cells; format: cell-based; settings: for concentration range providing improvement in cell viability / concentration at which high toxicity was observed (microscopy, loss of cell adherence): 24 h; for concentration range providing improvement in cell viability: compared to untreated cells (CTL); for concentration at which high toxicity was observed (microscopy, loss of cell adherence): ARPE-19, serum starvation medium (1% FBSM); for cell mortality: ARPE-19, serum starvation, 50 µM; for IC50: Homo sapiens, MTT, read-out: IC50 (concentration leading to 50% of cell viability)
Procedure: ARPE-19 cells were obtained from ATCC, and maintained in Dulbecco’s Modified Eagle’s Medium (DMEM)/Ham F12 (GIBCO) containing 10% (v/v) fetal bovine serum (FBS) and 1% (v/v) penicillin/streptomycin under a humidified (95%)/CO2 (5%) atmosphere at 37 °C. For splitting and experiments, cells were dissociated with 0.25% trypsin-EDTA, re-suspended in the culture medium and then plated at 1–3 × 10^5 cells/mL. Cells were cultured and used up to a maximum of 10 passages.
Cell viability was determined by the MTT colorimetric assay. Cells were incubated for 2 h with MTT reagent (0.5 mg/mL). The absorbance at 570 nm and 655 nm of individual wells was measured using a microplate reader (BioRad 550). The percentage of viable cells was calculated as [(OD570 sample – OD655 sample)/(OD570 control – OD655 control)] × 100%.
ARPE-19 cells were plated into 96-well plates (3 × 10^4 cells/well) and cultured for 24 h to reach confluence before DHA treatment. The cells were treated in medium with 1% FBS (1% FBSM), or with H2O2 prepared in medium with FBS (1%, v/v) to a final concentration of 600 μM. Cells were then treated with DHA, D2-DHA and D4-DHA, at different concentrations (0–80 μm) for 24 h. Control cells were incubated with DMSO (0.2%). After 4 h, cell viability was determined in triplicate using the MTT colorimetric assay. Results were expressed in percentage of viable cells normalized with control conditions in the absence of PUFA and H2O2 stress.
Sigmoidal doses-responses linked to the toxicity were obtained using GraphPad prism software, allowing to calculate IC50 values described as the concentration leading to 50% of cell viability.

[3] = serum starvation (1% FBSM) 24 h
[4] = ARPE-19, 24 h incubation, H2O2 (600 µM) 4 h
[5] = ARPE-19, serum starvation (1% FBSM), 24 h incubation
[6] = serum starvation (1% FBSM) 48 h

| Compound | lipid peroxidation status (C11-BODIPY fluorescence) (ARPE-19 cells [1]; [3]) | concentration range providing improvement in cell viability (ARPE-19 cells [2]; ARPE-19, 1% FBSM) | concentration at which high toxicity was observed (microscopy, loss of cell adherence) (ARPE-19 cells [2]) | cell mortality (ARPE-19 cells [2]) | IC50 (ARPE-19 cells [2]; [4]) | IC50 (ARPE-19 cells [2]; [5]) | lipid peroxidation status (C11-BODIPY fluorescence) (ARPE-19 cells [1]; [6]) | lipid peroxidation status (C11-BODIPY fluorescence) (ARPE-19 cells [1]; then H2O2 400 µM 24 h) | cell survival (ARPE-19 cells [2]; ARPE-19, 1% FBSM, 70 µM) | lipid peroxidation status (C11-BODIPY fluorescence) (ARPE-19 cells [1]; then photobleaching (white light, 5000 lux, 1 h)) |
| --- | --- | --- | --- | --- | --- | --- | --- | --- | --- | --- |
| [2H]C([2H])(/C=C\C/C=C\C/C=C\C/C=C\C/C=C\CC)/C=C\CCC(=O)O [D2-DHA, (6,6-D2)-DHA] | decreased lipid peroxidation status with the same efficiency, reaching oxidation levels of untreated cells | 0 to 65 µM | 65 to 70 µM | did not induced cell mortality | 67 ± 1.89 µM | 69.5 ± 1.46 µM | – | – | – | – |
| [2H]C([2H])(C=CCC=CCC=CCC=CCC)C=CC([2H])([2H])C=CCCC(=O)O [D4-DHA, (6,6,9,9-D4)-DHA] | decreased lipid peroxidation status with the same efficiency, reaching oxidation levels of untreated cells | 0 to 70 µM | 70 to 75 µM | did not induced cell mortality | 76.2 ± 2.26 µM | 75.6 ± 1.05 µM | reach radical levels close to untreated cells | more effective than D2-DHA | 125% | – |
| CC/C=C\C/C=C\C/C=C\C/C=C\C/C=C\C/C=C\CCC(=O)O [Natural DHA, docosahexaenoic acid, reference compound] | – | 0 to 60 µM | 60 to 65 µM | did not induced cell mortality | 65.5 ± 1.87 µM | 65.2 ± 1.03 µM | increase in lipid peroxidation status compared to untreated cells | increase of oxidation | – | increase in lipid peroxidation under photobleaching-stress |
